# Reference: patent publication US12410358B2, “Organic acid-based enhanced waterflooding” (UNIVERSITY OF WYOMING, priority 2018, dated 2025)
# Experiments:
# [1] = Interfacial shear viscoelasticity, double-wall ring rheometer; assay type: physicochemical; conditions: for tan (δ) / Fractional G′ / Fractional G″: 1 mM acid in 1% Na2SO4 brine, 25° C.; for tan (δ): compared to the brine; for Fractional G′ / Fractional G″: compared to the brine viscoelastic moduli
# Description: Rheological experiments were conducted with the GB oil and a low-salinity brine (1% Na2SO4) spiked with low concentration of organic acids using a TA Instruments AR-G2 Rheometer with a double-wall ring geometry. Measurement of the oil-water interface was performed using the rheometer, as the ring of the rheometer was placed directly on the denser phase, with the second phase added carefully at the end. The shear viscoelasticities were recorded at 25° C. Measurements were run in oscillatory time-sweep mode to measure the shear viscoelastic moduli, as the oscillatory time-sweep mode has high sensitivity to measure low frequency and torque values.
# The stress response of the oil-water interface can be calculated utilizing Equation 1: σ(t)=γo[G′(ω)sin(ωt)+G″(ω)cos(ωt)] where σ represents the shear stress, t represents the time, γo is the amplitude of the strain, G′(ω) is the elastic or real modulus, and G″(ω) is the viscous or imaginary modulus. The elastic modulus is the instantaneous response to stress and the viscous modulus is the delayed response quantified by a phase angle. The tangent of this angle is represented by the following equation: […]
# Experiments were run in the linear viscoelastic region, determined with a strain sweep test at fixed frequency on individual samples to determine appropriate values for each parameter in the following experiments.
# The rheometer was cleaned with toluene and methanol and then air-dried; the Pt/Ir ring of the rheometer was flamed to remove residual contaminants and salts before each experiment. The rheometer was positioned on an air-table and was calibrated for geometry, inertia, and friction before each experiment was prepared. The brine was filtered through a 0.45 μm SFCA filter and examined for bubbles before the ring was lowered to sit at the interface. Next, the oil was added on top of the brine in a manner selected to avoid disruption of the interface formed. Without moving the table, the setup was covered and allowed to run for a minimum of five days. The viscoelasticity was measured several times during the first day and then routinely once a day for the remainder of the experiment duration. The temperature was controlled with the Peltier plate beneath the sample holder. When cleaning the rheometer at the end of the experiment, care was taken to recover as much aqueous phase as possible for NMR and pH measurements.
# The interfacial viscoelasticity measurements were conducted on samples having a ratio of two parts aqueous phase to one part oil phase. […]
# [2] = Emulsion stability by TD-NMR droplet-size distribution; assay type: physicochemical; conditions: for Δd3 day 5 / Δσ day 5 / Δd3 day 14 / Δσ day 14: 1 mM acid in 1% Na2SO4, 1:1 with GB oil; for Δd3 day 5 / Δσ day 5: change days 1-5; for Δd3 day 14 / Δσ day 14: change days 1-14; for effect on emulsion stability compared to 1% Na2SO4 brine: 1 mM acid, day 14
# Description: Dispersions were prepared in a 1:1 volume ratio with GB oil to each acid (1 mM) in the 1% Na2SO4 brine. The dispersions were emulsified via […] at 6500 rpm for 30 seconds in an Ultra Turrax T25 basic (IKA-Werke) homogenizer. The emulsions were then homogenized for 3 minutes at 6500 rpm to obtain homogeneous droplets for characterization.
# Water-in-oil emulsions were prepared for each acid and the time evolution was tracked on a Bruker Biospin Minispec mq20 time domain nuclear magnetic resonance (TD-NMR). This instrument provides information about the polydispersity (σ) of the system and the diameter size (di). The variable i can represent either the diameter in terms of the number of droplets (1=0) or the diameter in terms of average volume of the droplets (1=3). The unimodal droplet size distribution for the created emulsions can be calculated according to Equation 2:
# [formula] where qi is the log-normal distribution, d50,i is the geometric mean diameter. Bruker software is used for the NMR and that calculated the droplet size distribution. The change in diameter in relation to the volume is useful because it is indicative of coalescence.
# This technique is advantageous as it is non-invasive and independent of the opacity of the dispersion. […] Droplet coalescence and emulsion stability was inferred by tracking the droplet-size distribution density over time.
# The influence of the specific acids on coalescence was evaluated with restricted diffusion in a time-domain nuclear magnetic resonance (TD-NMR) system. […] Measurements were recorded within the first hour after emulsification, and every day for days 1-5, and then on days 7, 10, and 14. The TD-NMR system calculates a median diameter, which relates to the number of droplets present (d0) and the volume of the droplets present (d3). […] The Bruker system software also provides a standard deviation, σ, which is applicable for both diameter values and relates to the polydispersity of the droplets in solution.
# [3] = Oil bridge neck diameter / snap-off experiment; conditions: 1 mM acid in 1% Na2SO4, GB oil bridge; for delay of snap-off / bridge failure compared to low-salinity brine: 1 hour aging
# Description: A bridge technique was executed on a modified First Ten Angstroms (FTA) 1000 pendant drop instrument using two opposing vertical needles. The slenderness ratio (A) is defined as the length of the bridge (L) divided by the diameter of the needle (D). A large slenderness ratio is associated with an unstable bridge. The bridge goes through at least two processes. First the oil is bridged between the opposing needles, suspended in the brine and aged up to one hour. While the bridge is aging, the interfacial elasticity increases and the interfacial tension decreases. There are no disruptions or deformation of the system, and thus the surface stress is equal to the interfacial tension. After aging, the bridge goes under the second process during which the oil comprising the bridge is removed at 0.1 μL/s. This response is tracked until bridge failure. During this process, due to the increase in the elasticity of the interface, an extensional longitudinal and compressive circumferential surface stress contribute to the process. The behavior of the oil when the bridge breaks is indicative of the dominant environment of the oil-water interface—e.g., whether the environment is characteristic of an elastic break or an inelastic break. An enhanced elastic break, resulting from the formation of a thick interface, can appear as pointy interface and can show very little recovery of its initial shape, while a viscous break can reform the initial appearance of the oil before the formation of the bridge as shown in FIGS. 8A-8C. FIG. 8A is an image of the bridge initially before any aging or oil removal. FIG. 8B is an image showing the behavior observed in an inelastic break, and FIG. 8C is an image showing the behavior observed in an elastic break. Increased viscoelasticity suppresses interfacial snap-off and helps to sustain a more continuous oil phase. An elastic bridge is much less prone to break and therefore can pull more volumes of oil out (more production).
# The behavior of the bridge is monitored with an APPRO camera at a frame rate of 60 frames per second and its geometry is tracked by measuring the neck diameter (ND). The neck diameter is the lowest radius along the vertical axis. The critical neck diameter (CND) is the value corresponding to the last frame of the connected bridge. The ratio of CND/ND is a stability proxy, and assumptions are made that a value close to zero indicates prevalent elastic forces.
# [4] = Solubility of acids in brine; assay type: physicochemical; conditions: no pH adjustment
# Description: A 1% Na2SO4 brine, equivalent to 2.24 mM (low salinity) and an ionic strength of 6.7 mM, was prepared and vacuumed for two hours before use. The brine was selected because it served as the baseline aqueous phase for the coreflooding experiments. Brine aliquots were then mixed with each of the 18 acid solutions at various concentrations and mixed into solution for several days. […] No adjustments were made to the brine to bring the acids into solution; at higher brine pH, larger naphthenic acids (NAs) solubilize more readily, while smaller ones can often dissolve at neutral pH. At higher pH, the potential for micelle and reverse micelle formation increases. However, embodiments described herein relate to acids that partition naturally, rather than those coaxed from the oil phase, so pH adjustments were not made in order to examine the influence of the acids in the system.
# Additionally, the naphthenic acid mixture (NAmix1) was analyzed.
tan (δ) ([1]; GB oil),Fractional G′ ([1]; GB oil),Fractional G″ ([1]; GB oil),Δd3 day 5 [2],Δσ day 5 [2],Δd3 day 14 [2],Δσ day 14 [2],effect on emulsion stability compared to 1% Na2SO4 brine [2],aging time after which skin was observed [3],bridge break behaviour (elastic / inelastic) [3],delay of snap-off / bridge failure compared to low-salinity brine [3],"G′ value (elastic modulus) ([1]; 1 mM acid, day 5, GB oil)","G″ value (viscous modulus) ([1]; 1 mM acid, day 5, GB oil)","interface relative to un-acidified brine values ([1]; 10 mM acid, day 5, GB oil)","concentration at which G′ and G″ plateau (acid believed to form aggregates) ([1]; GB oil, 1% Na2SO4 brine)",aging time after which solid-like film (skin) was visible [3],SMILES,solubility in 1% Na2SO4 brine [4]
114%,53%,47%,1.045,0.1325,1.115,0.1722,stabilize the emulsions,,,,,,,,,"O=C(O)[C@@H]1CCCN1 [L-Proline, L-proline]",
189%,25.8%^,48.8%,1.315,0.1998,1.6025,0.3463,does not encourage coalescence,,,,,,,,,"Cc1ccc(C(=O)O)cc1 [NA12, p-toluic acid]",
90.6%,151%,137%,1.3475,1.3475,1.4425,0.259,stabilize the emulsions,~12 h,more elastic break,delays snap-off,,,,,,"O=C(O)C1CCCC1 [NA14, cyclopentane carboxylic acid]",
127%,42%,53.5%,1.5395,0.1263,1.572,0.2238,stabilize the emulsions,,asymmetric elastic skin,delayed bridge failure the longest,about 100 mPa,about 35 mPa,21.2%,above 2.5 mM,about 10 minutes,"O=C(O)C1CCCCC1 [NA18, cyclohexane carboxylic acid]",especially soluble at higher concentrations
